“Also recorded” adds a separate entry of the source.

From patent US11951131B2, “Anti-SLAMF7 chimeric antigen receptors” (The United States of America, as represented by the …, priority 2018, dated 2024) come the findings set out here.

One assay concerns SLAMF7^+ MM.1S cells. Briefly: Cytotoxicity assay (4 hours, relative to CCRF-CEM cells). The assay is classed as cell-based, human. Particulars: MM.1S relative to control CCRF-CEM cells (FIG. 8A). The method, then: Cytotoxicity assays were conducted as previously described (see Kochenderfer et al., J. Immunother., 32(7): 689-702 (2009)). Cytotoxicity was measured by comparing survival of SLAMF7^+ target cells relative to the survival of negative-control CCRF-CEM cells. Both of these cell types were combined in the same tubes with CAR-transduced T cells. CCRF-CEM negative control cells were labeled with the fluorescent dye 5-(and -6)-(((4-chloromethyl)benzoyl)amino) tetramethylrhodamine (CMTMR) (Invitrogen), and SLAMF7^+ target cells were labeled with CFSE. Cocultures were set up in sterile 5 mL test tubes (BD Biosciences) in duplicate at multiple T cell to target cell ratios. The target cells contained in the tubes were 50,000 SLAMF7^+ target cells along with 50,000 CCRF-CEM negative-control cells. The cultures were incubated for 4 hours at 37° C. Immediately after the incubation, 7AAD (7-amino-actinomycin D) (BD Biosciences) was added, and flow cytometry acquisition was performed. For each T cell plus target-cell culture, the percent survival of SLAMF7^+ target cells was determined by dividing the percent live SLAMF7^+ cells by the percent live CCRF-CEM negative control cells. The corrected percent survival of SLAMF7^+ target cells was calculated by dividing the percent survival of SLAMF7^+ target cells in each T cell plus target cell culture by the ratio of the percent live SLAMF7^+ target cells to percent live CCRF-CEM negative-control cells in tubes containing only SLAMF7^+ target cells and CCRF-CEM cells without effector T cells. This correction was necessary to account for variation in the starting cell numbers and for spontaneous target cell death. Cytotoxicity was calculated as follows: the percent cytotoxicity of […] target cells=100−corrected percent survival of SLAMF7^+ target cells.

In assay [1] the test system is MM.1S human SLAMF7^+ multiple myeloma solid tumors. As to the kind of experiment: MM.1S solid tumor model in NSG mice, anti-tumor efficacy. Particulars: for anti-tumor activity: 2 million CAR^+ T cells per mouse, 5 mice per group (FIG. 17). The assay is classed as in vivo. The method, then:
First, MM.1S human SLAMF7^+ multiple myeloma cell line tumors were established in immunodeficient mice. In this model, the MM.1S cells formed a solid cutaneous mass. Measurable tumors were allowed to develop over 7 days, and then the mice were treated with a single intravenous infusion of MSGV1-IC9-Luc90-CD828Z-transduced human T cells. NSG mice (NOD.Cg-Prkdc^scid Il2rg^tm1Wjl/SzJ) from The Jackson Laboratory, Bar Harbor, Me., were used. Mice received intradermal injections of 4×10^6 MM.1S cells. The cells were suspended in a 1:1 mixture of MATRIGEL™ gelatinous protein mixture (BD Biosciences) and PBS (Phosphate-buffered saline) for injection. Tumors were allowed to grow for 7 days, and then each mouse received a single intravenous infusion of human T cells that were transduced with one of 3 CARs: IC9-Luc90-CD828Z (suicide gene+anti-SLAMF7 CAR), Luc90-CD828Z (anti-SLAMF7 CAR alone), or a negative-control anti-CD19 CAR Hu19-CD828Z. A 4th group was left untreated. All groups included 5 mice. After CAR T-cell infusion, the tumors were measured with calipers every 3 days. The longest length and the length perpendicular to the longest length and the tumor thickness were multiplied together to obtain the tumor volume in mm^3. When the longest length reached 15 mm, mice were sacrificed. Animal studies were approved by the National Cancer Institute Animal Care and Use Committee.
FIGS. 16A-16B show a dose-titration of IC9-Luc90-CD828Z-expressing T cells. In this experiment, immunocompromised NSG mice were injected intradermally with 4×10^6 MM.1S cells to form a solid mass. Mice were then treated with a single infusion of 0.5×10^6, 2×10^6, or 8×10^6, IC9-Luc90-CD828Z-expressing T cells. […] The tumor volume curves end when the first mouse of a group was sacrificed.
MM.'S tumors were established in NSG mice as described in Example 9. FIGS. 17A-17B show results in which mice bearing MM.1S tumors were treated with T cells expressing one of 3 different CARs: IC9-Luc90-CD828Z (suicide gene+anti-SLAMF7 CAR), Luc90-CD828Z (anti-SLAMF7 CAR alone), or a negative-control anti-CD19 CAR Hu19-CD828Z. A 4th group was left untreated in both experiments. All groups included 5 mice. The CARP T cell dose was 2 million CARP T cells per mouse. There were 5 mice in all groups.

A further assay concerns IC9-expressing T cells. Briefly: 6-hour and 48-hour post-rimiducid T cell death analysis. The assay is classed as cell-based, human. The conditions noted are these: for elimination of CAR T cells when AP1903 was added to the T-cell cultures: per construct, in words. As to the method: On day 8 of culture, 1 million T cells from cultures that were either untransduced or transduced with one of the anti-SLAMF7 CARs cells were suspended at 1×10^6 T cells/mL in AIM V™ media (Invitrogen) plus 300 IU of interleukin-2. One million cells were added to each of 4 wells of a 12-well plate. A different concentration of AP1903 (MedChem Express, Princeton, N.J.) from was added to each well. AP1903 is also referred to as rimiducid. The concentrations of AP1903 evaluated were: 0, 1, 10, or 100 ng/mL.
Six hours and 48 hours after these cultures were set up, the cells were counted, washed, and stained with Protein L as described above. Next, the cells were washed twice with PBS, re-suspended in Annexin V binding buffer (BD Biosciences), and incubated with allophycocyanin-conjugated Annexin V (BD Biosciences) and 7AAD (BD Biosciences) for 15 minutes (mins) at room temp. The cells were immediately analyzed by flow cytometry.

Where [2] appears, read: dose of 2 million or more T cells per mouse.

On to “IC9-Luc90-CD828Z: CAR plus suicide gene construct (SEQ ID NO: 31): IC9 suicide gene 5′ to the CAR, T2A, Luc90-CD828Z”, for which the “killing of SLAMF7^+ target cells” value in the assay with SLAMF7^+ MM.1S cells was “killed SLAMF7^+ target cells; also recorded: specifically killed the SLAMF7^+ MM.1S cells”. In addition, the “dose dependence of activity against established tumors” value in assay [1] (0.5×10^6 to 8×10^6 T cells) is listed as “dose-dependent activity”. Besides, the anti-tumor activity entry in assay [1] is recorded as “powerful anti-tumor activity”. Further, in assay [1] (setting [2]), the survival result is on record as “mice survive long-term”. The tumor eradication entry in assay [1] (setting [2]) is on record as “tumors can be eradicated”. Also, the effect on tumors result in assay [1] (single infusion of 0.5×10^6 CAR^+ T cells (FIG. 16)) is listed as “only slightly slowed tumor growth relative to untreated mice but did not eliminate any tumors”; in assay [1] (single infusion of 2×10^6 CAR^+ T cells (FIG. 16)) it was “eliminated all tumors”; in assay [1] (single infusion of 8×10^6 CAR^+ T cells (FIG. 16)), “eliminated all tumors”. The “elimination of CAR^+ T cells, comparison of the two constructs” value with IC9-expressing T cells (IC9-Luc90-CD828Z compared with Luc90-CD828Z-IC9) is listed as “slightly superior”. Further, in the assay on IC9-expressing T cells, the “elimination of CAR T cells when AP1903 was added to the T-cell cultures” value was “efficiently eliminated”.
For “Luc90-CD828Z: anti-SLAMF7 CAR (SEQ ID NO: 27): murine Luc90 scFv, human CD8a hinge and TM, CD28 and CD3ζ domains; tested as transduced T cells”, in the assay with SLAMF7^+ MM.1S cells, the “killing of SLAMF7^+ target cells” value is recorded as “killed SLAMF7^+ target cells”. Also, the anti-tumor activity entry in assay [1] is “powerful anti-tumor activity”. In addition, the “elimination of CAR T cells when AP1903 was added to the T-cell cultures” value in the assay on IC9-expressing T cells was “efficiently eliminated”.
